Measurements taken from PubChem BioAssay AID248 (DTP/NCI, 2004).
Where “and” joins values, the source holds several entries; their conditions need not be identical. Identical values can stand only once. Toxic doses and inconclusive results are not listed.

Test system: L1210 leukemia ip in BDF1 mice, survival T/C
Test: NCI In Vivo Anticancer Drug Screen. Data for tumor model L1210 Leukemia (intraperitoneal) in B6D2F1 (BDF1) mice
Settings: endpoint: mean survival time, higher = longer survival
Method in brief: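 Tumor was transplanted into mice, which were then dosed with test compound or vehicle alone. Survival was recorded for each group, and the treated figure was expressed relative to the control figure.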

SMILES: CCCCN1CCCC(O)C1 (centres undefined)
- T/C (dose: 100.0 mg/kg/injection, schedule: Q04DX003 (ip), vehicle: saline): 97 % of control
- T/C (dose: 200.0 mg/kg/injection, schedule: Q04DX003 (ip), vehicle: saline): 104 % of control

SMILES: Nc1ncnc2c1ncn2C1OC(COS(N)(=O)=O)C(O)C1O (centres undefined)
- T/C (dose: 0.5 mg/kg/injection, schedule: Q01DX001 (ip), vehicle: saline): 113 % of control

SMILES: CN1CCN=C1c1ccc(NC(=O)Nc2ccc(NC(=O)Nc3ccc(C4=NCCN4C)cc3)cc2)cc1
- T/C (dose: 6.5 mg/kg/injection, schedule: Q01DX009 (ip), vehicle: other): 108 % of control
- T/C (dose: 10.0 mg/kg/injection, schedule: Q01DX009 (ip), vehicle: other): 105 % of control
- T/C (dose: 15.0 mg/kg/injection, schedule: Q01DX009 (ip), vehicle: other): 118 % of control
- T/C (dose: 22.0 mg/kg/injection, schedule: Q01DX009 (ip), vehicle: other): 118 % of control
- T/C (dose: 33.0 mg/kg/injection, schedule: Q01DX009 (ip), vehicle: other): 162 % of control
- T/C (dose: 50.0 mg/kg/injection, schedule: Q01DX009 (ip), vehicle: other): 227 % of control
- T/C (dose: 50.0 mg/kg/injection, schedule: Q01DX009 (ip), vehicle: saline): 191 % of control
- T/C (dose: 75.0 mg/kg/injection, schedule: Q01DX001 (ip), vehicle: other): 109 % of control
- T/C (dose: 75.0 mg/kg/injection, schedule: Q01DX009 (ip), vehicle: other): 204 % of control
- T/C (dose: 75.0 mg/kg/injection, schedule: Q01DX009 (ip), vehicle: saline): 191 % of control
- T/C (dose: 112.0 mg/kg/injection, schedule: Q01DX009 (ip), vehicle: other): 111 % of control
- T/C (dose: 112.0 mg/kg/injection, schedule: Q01DX009 (ip), vehicle: saline): 197 % of control
- T/C (dose: 150.0 mg/kg/injection, schedule: Q01DX001 (ip), vehicle: other): 124 % of control

SMILES: CC1CCC2N(C1)CC1C3(O)CC45OC6(O)C(O)CCC4(C)C6CCC5C3(O)CC(O)C1(O)C2(C)O (centres undefined)
- T/C (dose: 75.0 mg/kg/injection, schedule: Q01DX001 (ip), vehicle: saline): 104 % of control
- T/C (dose: 150.0 mg/kg/injection, schedule: Q01DX001 (ip), vehicle: saline): 105 % of control

SMILES: CC(=O)OC1C(C2CSC(=O)O2)OC2OC(C)(C)OC21 (centres undefined)
- T/C (dose: 25.0 mg/kg/injection, schedule: Q04DX002 (ip), vehicle: saline): 89 % of control
- T/C (dose: 50.0 mg/kg/injection, schedule: Q04DX002 (ip), vehicle: saline): 103 % of control
- T/C (dose: 100.0 mg/kg/injection, schedule: Q04DX002 (ip), vehicle: saline): 92 % of control

SMILES: CC(C)/C=N/N(C)C(=O)Nc1cccc2ccccc12
- T/C (dose: 50.0 mg/kg/injection, schedule: Q01DX001 (ip), vehicle: carboxymethylcellulose (CMC)): 97 % of control
- T/C (dose: 100.0 mg/kg/injection, schedule: Q01DX001 (ip), vehicle: carboxymethylcellulose (CMC)): 94 % of control
- T/C (dose: 200.0 mg/kg/injection, schedule: Q01DX001 (ip), vehicle: carboxymethylcellulose (CMC)): 94 % of control
- T/C (dose: 400.0 mg/kg/injection, schedule: Q01DX001 (ip), vehicle: carboxymethylcellulose (CMC)): 90 % of control

SMILES: Oc1ccc2ccccc2c1-c1nc2ccccc2s1
- T/C (dose: 25.0 mg/kg/injection, schedule: Q04DX003 (ip), vehicle: other): 94 % of control and 111 % of control
- T/C (dose: 50.0 mg/kg/injection, schedule: Q04DX003 (ip), vehicle: other): 97 % of control and 88 % of control
- T/C (dose: 100.0 mg/kg/injection, schedule: Q04DX003 (ip), vehicle: other): 91 % of control

SMILES: COc1ccc(/C=C2\N=C(c3cc(OC)c(OC)c(OC)c3)OC2=O)cc1OC
- T/C (dose: 100.0 mg/kg/injection, schedule: Q04DX002 (ip), vehicle: Klucel (hydroxypropylcellulose) (HPC)): 123 % of control
- T/C (dose: 200.0 mg/kg/injection, schedule: Q04DX002 (ip), vehicle: Klucel (hydroxypropylcellulose) (HPC)): 101 % of control
- T/C (dose: 400.0 mg/kg/injection, schedule: Q04DX002 (ip), vehicle: Klucel (hydroxypropylcellulose) (HPC)): 101 % of control

SMILES: COC(=O)C1C2CCC(C2)C1C (centres undefined)
- T/C (dose: 25.0 mg/kg/injection, schedule: Q04DX003 (ip), vehicle: saline with Tween-80): 101 % of control
- T/C (dose: 50.0 mg/kg/injection, schedule: Q04DX003 (ip), vehicle: saline with Tween-80): 97 % of control
- T/C (dose: 100.0 mg/kg/injection, schedule: Q04DX003 (ip), vehicle: saline with Tween-80): 94 % of control

SMILES: CC(O)C/C=N\N=C(N)N (centres undefined)
- T/C (dose: 15.0 mg/kg/injection, schedule: Q01DX Z (ip), vehicle: methylcellulose (MC)): 95 % of control
- T/C (dose: 15.0 mg/kg/injection, schedule: Q01DX Z (oral), vehicle: methylcellulose (MC)): 101 % of control
- T/C (dose: 30.0 mg/kg/injection, schedule: Q01DX Z (oral), vehicle: methylcellulose (MC)): 88 % of control
- T/C (dose: 60.0 mg/kg/injection, schedule: Q01DX Z (oral), vehicle: methylcellulose (MC)): 94 % of control
- T/C (dose: 120.0 mg/kg/injection, schedule: Q01DX Z (oral), vehicle: methylcellulose (MC)): 88 % of control
